Article PMC11756396 (Nature Communications, 2025)

What was measured:
[1] = test system: TCR4-expressing T cells co-cultured with HLA-A3+ antigen presenting cells (Cos-7); experiment: CD107a degranulation of TCR4-transduced T cells, peptide-pulsed HLA-A3+ APC (flow cytometry); settings: for CD107a, absolute frequency: TCR4, 6 h co-culture, E:T 1:1, mean of three replicates
Experimental: TCR-T cells were utilized for downstream functional analysis at days 5–8 post transduction.
Cos-7 cells were electroporated with 100 μg/mL of HLA-A*03:01 mRNA and plated into 96-well round-bottom plates overnight. […] Cells were washed with 1× PBS to remove any unbound peptide. […] Cells were washed again with PBS and then fixed and permeabilized for 15 min at 4 °C. […] All antibodies were used at a final concentration of 5 μg/mL. Finally, cells were washed with perm-wash buffer, suspended in 2% FBS in PBS, and data acquired on an X20 LSR Fortessa flow cytometer with the BD FACSDiva software.

HLA-A3 [2] = molecular target: T1, HLA-A3 (Homo sapiens, UniProt P04439); design: method as in 2 sources, one per row (each row's own in cited_ref): ref 15 (a number printed in a supplementary file, which may have a reference list of its own: not looked up in the article's list) ||| ref 10, ref 15; settings: cited from earlier work
T1 construct: the extracellular domain of the MHC heavy chain, β2-microglobulin, TCR α and β chains; made in house

[3] = test system: TCR4-expressing T cells co-cultured with HLA-A3+ antigen presenting cells (Cos-7); experiment: TNFα production by TCR4-transduced T cells (intracellular cytokine staining); settings: Conc. 100 (unit not given), mean of three replicates
HLA-A3 [4] = molecular target: T1, HLA-A3; settings: PIK3CA–HLA-A3 complex; quoted in peer review; cited from earlier work
HLA-A3 [5] = molecular target: T1, HLA-A3; experiment: 19F NMR of 5F-Trp-substituted peptide/HLA-A3; settings: 5F-Trp6, 0.3 mM complex, pH 7.4, 5 °C
Experimental: ^19F NMR spectra were recorded using a Bruker 600 MHz NMR instrument with a QCI cryogenic probe at NMRFAM, University of Wisconsin-Madison. All proteins were solubilized in 10 mM HEPES, 150 mM NaCl, pH 7.4 with 10% D2O (Cambridge Isotope Laboratories DLM-4-25).
NMR probe temperature was maintained at a calibrated value of 5.2 °C. […] To improve the signal/noise ratio, we compared ^19F 1D spectra recorded with and without proton decoupling. Decoupling caused a noticeable reduction of the signal intensity of the ^19F nuclear spin in the context of the complexes; therefore, all spectra were collected un-decoupled to maximize sensitivity. The reference frequency of the ^19F channel was set through internal routines of the Topspin acquisition software after the spectrometer was locked on D2O. The recycle delay was optimized to find the best compromise between the longitudinal relaxation and the repetition rate for signal averaging. The optimal values of D1 = 0.4 s and AQ = 0.59 s were used in all experiments. One-dimensional fluorine experiments were recorded with the pulse program zgflqn.F from the standard Bruker library with TD1 = 134,078 points and a spectral width (SW) of 200 ppm. […] The 4 h data blocks were checked individually for a possible frequency drift (which was not detected) and added to obtain combined datasets with improved signal/noise ratio. […]

[6] = test system: TCR3-expressing T cells co-cultured with HLA-A3+ antigen presenting cells (Cos-7); experiment: TNFα production by TCR3-transduced T cells (intracellular cytokine staining); settings: Conc. 100 (unit not given), mean of three replicates
HLA-A3 [7] = molecular target: T1, HLA-A3; experiment: Peptide dissociation from HLA-A3 by fluorescence anisotropy; type: binding
T cells = settings: high, supraphysiological concentrations; cited from earlier work

share of remaining 19F population (HLA-A3 [5]; broad peak at –[…]): roughly 50%
share of total 19F signal (HLA-A3 [5]; sharp peak at –125.12 ppm (degradation)): about 19%
peptide/HLA-A3 stability in words (HLA-A3 [7]; 37 °C and 25 °C, 100 nM fluorescein-labeled peptide/HLA-A3, pH 7.4): less stable at 37 °C and 25 °C
Sequence: AHHGGWTTK [WT peptide, wild-type PI3Kα peptide, His at position 2, presented by HLA-A3]
CD107a, absolute frequency ([1]; peptide 0.001 ug/mL): 1.367
CD107a, absolute frequency ([1]; peptide 0.01 ug/mL): 3.473
CD107a, absolute frequency ([1]; peptide 0.1 ug/mL): 1.267
CD107a, absolute frequency ([1]; peptide 1 ug/mL): 1.09
CD107a, absolute frequency ([1]; peptide 10 ug/mL): 1.843
CD107a, absolute frequency ([1]; peptide 1.00E-05 ug/mL): 1.503
stimulation (CD107a) ([1]; TCR4 T cells, peptide concentrations as high as 10 μM): no stimulation was evident
half-life of peptide/HLA-A3 complex (HLA-A3 [2]; 37 °C (b252/b262 context), quoted in peer review): 4.8 min
half-life, peptide dissociation (HLA-A3 [2]; HLA-A3, 37 °C, fluorescence anisotropy): 4.82 min
TNFα, absolute frequency [3]: 2.4
melting temperature (thermal stability) (HLA-A3 [4]): 37 oC
TNFα, absolute frequency [6]: 4.823
peptide/HLA-A3 dissociation in words (HLA-A3 [7]; 4 °C, 100 nM fluorescein-labeled peptide/HLA-A3, 100 μM unlabeled peptide, pH 7.4): only a small amount of dissociation observed over an extended period
T cell responses (T cells): no responses were seen
